Data: ChEMBL document CHEMBL1201862, “PubChem BioAssay data set” (2004)
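The compound was tested at five concentrations on cells cultured in 96-well plates, with a 48-hour exposure period. Abbreviation: GI50, concentration required for 50% inhibition of growth.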 Calls of active or inactive are those of the source. Rule as the data show it: active = GI50 up to about 1.1 µM and inactive = higher.

Key:
Experiment in all cases: NCI tumour cell line growth inhibition, 48 h
EKVX = test system: EKVX
HCT-116 = test system: HCT-116
HT-29 = test system: HT-29
MDA-MB-231 = test system: MDA-MB-231
MDA-MB-435 = test system: MDA-MB-435
MOLT-4 = test system: MOLT-4
NCI-H23 = test system: NCI-H23
OVCAR-8 = test system: OVCAR-8
PC-3 = test system: PC-3
SF-295 = test system: SF-295
SK-MEL-28 = test system: SK-MEL-28
SK-MEL-2 = test system: SK-MEL-2
SK-MEL-5 = test system: SK-MEL-5
SNB-19 = test system: SNB-19
SW-620 = test system: SW-620
T47D = test system: T47D
U-251 = test system: U-251
UACC-257 = test system: UACC-257
RPMI-8226 = test system: RPMI-8226

Compound: COCC1OC(Sc2ccccc2)C(O)C(OC)C1OC (centres undefined)
- GI50 (EKVX): > 100 µM (inactive)
- GI50 (HCT-116): > 100 µM (inactive)
- GI50 (HT-29): > 100 µM (inactive)
- GI50 (MDA-MB-231): > 100 µM (inactive)
- GI50 (MDA-MB-435): > 100 µM (inactive)
- GI50 (MOLT-4): > 100 µM (inactive)
- GI50 (NCI-H23): > 100 µM (inactive)
- GI50 (OVCAR-8): > 100 µM (inactive)
- GI50 (PC-3): > 100 µM (inactive)
- GI50 (SF-295): > 100 µM (inactive)
- GI50 (SK-MEL-28): > 100 µM (inactive)
- GI50 (SK-MEL-2): > 100 µM (inactive)
- GI50 (SK-MEL-5): > 100 µM (inactive)
- GI50 (SNB-19): > 100 µM (inactive)
- GI50 (SW-620): > 100 µM (inactive)
- GI50 (T47D): > 100 µM (inactive)
- GI50 (U-251): > 100 µM (inactive)
- GI50 (UACC-257): > 100 µM (inactive)

Compound: O=S(=O)(c1cc(Cl)ccc1Cl)N1CCN(S(=O)(=O)c2cc(Cl)ccc2Cl)CC1
- GI50 (HCT-116): > 100 µM (inactive)
- GI50 (HT-29): > 100 µM (inactive)
- GI50 (MDA-MB-231): > 100 µM (inactive)
- GI50 (MDA-MB-435): > 100 µM (inactive)
- GI50 (MOLT-4): > 100 µM (inactive)
- GI50 (NCI-H23): 4.86 µM (inactive)
- GI50 (OVCAR-8): > 100 µM (inactive)
- GI50 (PC-3): > 100 µM (inactive)
- GI50 (SF-295): > 100 µM (inactive)
- GI50 (SK-MEL-28): > 100 µM (inactive)
- GI50 (SK-MEL-2): 0.403 µM (active)
- GI50 (SK-MEL-5): > 100 µM (inactive)
- GI50 (SNB-19): > 100 µM (inactive)
- GI50 (SW-620): > 100 µM (inactive)
- GI50 (T47D): > 100 µM (inactive)
- GI50 (U-251): > 100 µM (inactive)
- GI50 (UACC-257): > 100 µM (inactive)

Compound: CCOC(=O)C(Cc1ccccc1)(Cc1ccc(O)cn1)NC(=O)c1ccccc1 (centres undefined)
- GI50 (EKVX): 25.9 µM (inactive)
- GI50 (HCT-116): 24.7 µM (inactive)
- GI50 (HT-29): 26.5 µM (inactive)
- GI50 (MDA-MB-231): 28.1 µM (inactive)
- GI50 (MDA-MB-435): 9.51 µM (inactive)
- GI50 (MOLT-4): 27.9 µM (inactive)
- GI50 (NCI-H23): 32.8 µM (inactive)
- GI50 (OVCAR-8): 31.6 µM (inactive)
- GI50 (PC-3): 18.5 µM (inactive)
- GI50 (RPMI-8226): 25.9 µM (inactive)
- GI50 (SF-295): 27.3 µM (inactive)
- GI50 (SK-MEL-28): 36.5 µM (inactive)
- GI50 (SK-MEL-2): 20.2 µM (inactive)
- GI50 (SK-MEL-5): 16.5 µM (inactive)
- GI50 (SNB-19): 32 µM (inactive)
- GI50 (SW-620): 29.6 µM (inactive)
- GI50 (U-251): 21.7 µM (inactive)
- GI50 (UACC-257): 23.5 µM (inactive)

Compound: CC1CC(N2CCOCC2)=Nc2ccccc2N1Cc1ccccc1 (centres undefined)
- GI50 (EKVX): 90.6 µM (inactive)
- GI50 (HCT-116): > 100 µM (inactive)
- GI50 (HT-29): 38.7 µM (inactive)
- GI50 (MDA-MB-231): > 100 µM (inactive)
- GI50 (MDA-MB-435): 56.2 µM (inactive)
- GI50 (NCI-H23): > 100 µM (inactive)
- GI50 (OVCAR-8): 88.5 µM (inactive)
- GI50 (PC-3): 50.6 µM (inactive)
- GI50 (RPMI-8226): 48.2 µM (inactive)
- GI50 (SF-295): 57.7 µM (inactive)
- GI50 (SK-MEL-28): 49.1 µM (inactive)
- GI50 (SK-MEL-2): > 100 µM (inactive)
- GI50 (SK-MEL-5): 36.3 µM (inactive)
- GI50 (SNB-19): > 100 µM (inactive)
- GI50 (SW-620): > 100 µM (inactive)
- GI50 (U-251): > 100 µM (inactive)
- GI50 (UACC-257): 38.3 µM (inactive)

Compound: CCN(CC)Cc1cc(Nc2ccnc3ccc4c(nnn4C)c23)ccc1O
- GI50 (EKVX): 26.7 µM (inactive)
- GI50 (HCT-116): 4.93 µM (inactive)
- GI50 (HT-29): 5.56 µM (inactive)
- GI50 (MDA-MB-231): 17.2 µM (inactive)
- GI50 (MOLT-4): 3.86 µM (inactive)
- GI50 (NCI-H23): 11.5 µM (inactive)
- GI50 (OVCAR-8): 16.1 µM (inactive)
- GI50 (PC-3): 6.82 µM (inactive)
- GI50 (SF-295): 12.7 µM (inactive)
- GI50 (SK-MEL-28): 3.98 µM (inactive)
- GI50 (SK-MEL-2): 16.1 µM (inactive)
- GI50 (SK-MEL-5): 12.7 µM (inactive)
- GI50 (SNB-19): 5.55 µM (inactive)
- GI50 (T47D): 23.9 µM (inactive)
- GI50 (UACC-257): 14.8 µM (inactive)

Compound: O=[N+]([O-])c1ccc2c(c1)S(=O)(=O)N1Cc3ccccc3CCN21
- GI50 (EKVX): 13.3 µM (inactive)
- GI50 (HCT-116): > 100 µM (inactive)
- GI50 (HT-29): > 100 µM (inactive)
- GI50 (MDA-MB-231): > 100 µM (inactive)
- GI50 (MDA-MB-435): > 100 µM (inactive)
- GI50 (MOLT-4): > 100 µM (inactive)
- GI50 (NCI-H23): > 100 µM (inactive)
- GI50 (OVCAR-8): > 100 µM (inactive)
- GI50 (PC-3): > 100 µM (inactive)
- GI50 (RPMI-8226): > 100 µM (inactive)
- GI50 (SF-295): 27.1 µM (inactive)
- GI50 (SK-MEL-28): > 100 µM (inactive)
- GI50 (SK-MEL-2): > 100 µM (inactive)
- GI50 (SK-MEL-5): > 100 µM (inactive)
- GI50 (SNB-19): 35 µM (inactive)
- GI50 (SW-620): > 100 µM (inactive)
- GI50 (U-251): 45.1 µM (inactive)
- GI50 (UACC-257): 29.1 µM (inactive)

Compound: COc1cccc2c1C(=O)c1c(O)c3c(c(O)c1C2=O)CC(O)(C(O)CO)CC3OC1CC2C(OC3COCC(C#N)N32)C(C)O1 (centres undefined)
- GI50 (EKVX): < 0.01 µM (active)
- GI50 (HCT-116): < 0.01 µM (active)
- GI50 (HT-29): < 0.01 µM (active)
- GI50 (MDA-MB-231): < 0.01 µM (active)
- GI50 (MDA-MB-435): < 0.01 µM (active)
- GI50 (MOLT-4): < 0.01 µM (active)
- GI50 (NCI-H23): < 0.01 µM (active)
- GI50 (OVCAR-8): < 0.01 µM (active)
- GI50 (PC-3): < 0.01 µM (active)
- GI50 (SF-295): < 0.01 µM (active)
- GI50 (SK-MEL-28): < 0.01 µM (active)
- GI50 (SK-MEL-2): < 0.01 µM (active)
- GI50 (SK-MEL-5): < 0.01 µM (active)
- GI50 (SNB-19): < 0.01 µM (active)
- GI50 (SW-620): < 0.01 µM (active)
- GI50 (T47D): < 0.01 µM (active)
- GI50 (U-251): < 0.01 µM (active)
- GI50 (UACC-257): < 0.01 µM (active)

Compound: C=C(C)C1CCC2(CO)C(O)CC3(C)C(CCC4C5(C)CCC(O)C(C)(C)C5CCC43C)C12 (centres undefined)
- GI50 (EKVX): 13.9 µM (inactive)
- GI50 (HCT-116): 22.4 µM (inactive)
- GI50 (HT-29): 6.53 µM (inactive)
- GI50 (MDA-MB-231): 12.7 µM (inactive)
- GI50 (MDA-MB-435): 7.74 µM (inactive)
- GI50 (MOLT-4): 27.4 µM (inactive)
- GI50 (NCI-H23): > 10 µM (inactive)
- GI50 (OVCAR-8): 3.85 µM (inactive)
- GI50 (PC-3): 6.01 µM (inactive)
- GI50 (SF-295): 2.84 µM (inactive)
- GI50 (SK-MEL-28): 10.4 µM (inactive)
- GI50 (SK-MEL-2): 10.3 µM (inactive)
- GI50 (SK-MEL-5): 5.14 µM (inactive)
- GI50 (SNB-19): 5.36 µM (inactive)
- GI50 (SW-620): 21.8 µM (inactive)
- GI50 (T47D): 1.06 µM (active)
- GI50 (U-251): 2.81 µM (inactive)
- GI50 (UACC-257): 10.5 µM (inactive)
